{"source": "patent EP2769722A1", "about": "(Ruprecht-Karls-Universität Heidelberg, priority 2013, dated 2014)", "note": "Structures can show the parent of a compound that is named as a salt."}
{"target": "T1, CA (Human immunodeficiency virus type 1 group M subtype B, UniProt P12493)", "T1 construct": "a fusion protein of CA with glutathione-S-transferase (CA-GST)", "assay": "AlphaScreen: inhibition of CAI-biotin peptide binding to CA-GST", "set-up": "species or system HIV-1", "settings": "inhibition of CAI binding to CA (CA-GST fusion); compounds screened at 0.5-100 µM; read-out: α screen IC50", "protocol": "The AlphaScreen experiments are performed using Perkin Elmer Enspire plate reader in white 96-well ProxiPlates and PBS supplemented with 0.05% Tween20, 2mM DTT, 2% DMSO. First, Streptavidin-coated Donor beads are used to capture the CAI-biotin peptide. In the other solution, a fusion protein of CA with glutathione-S-transferase (CA-GST) is mixed with GSH Acceptor beads. Both mixtures were incubated and then mixed together. To test the ability of prepared organic compounds to inhibit the CAI binding to CA, they are screened at concentrations between 0.5-100 µM and IC50 values are calculated from the influenced signals.\nUpon illumination by laser at 680 nm, Donor beads containing the photosensitizer phthalocyanine convert ambient oxygen to an excited form of singlet oxygen ^1O2. Singlet oxygen can within its half-life of ∼ 4µs diffuse approximately 200 nm in solution. If an Acceptor bead is within that proximity, which is mostly upon CA:CAI interaction, energy is transferred from the singlet oxygen to thioxene derivates within the Acceptor and signal at 520 - 620 nm is emitted. […] Table 4: Synthesized and tested compounds", "units": {"IC50": "µM"}}
{"smiles": "Cc1ccc(NC(=O)c2cccc(C(F)(F)F)c2)cc1Nc1cc(-c2cccnc2Cl)ncn1", "note": "[KP-380, N-(3-(6-(2-chloropyridin-3-yl)pyrimidin-4-ylamino)-4-methylphenyl)-3-(trifluoromethyl)benzamide hydrochloride]", "IC50": "> 100"}
{"smiles": "Cc1ccc(NC(=O)c2cccc(C(F)(F)F)c2)cc1Nc1ccnc(-c2cncc(Br)c2)n1", "note": "[KP-384, N-(3-(2-(5-bromopyridin-3-yl)pyrimidin-4-ylamino-4-methylphenyl)-3-(trifluoromethyl)benzamide hydrochloride]", "IC50": "> 100"}
{"smiles": "Cc1ccc(NC(=O)c2cccc(C(F)(F)F)c2)cc1Nc1ccnc(-c2cccnc2)n1", "note": "[KP-385, N-(3-(2-(pyridin-3-yl)pyritnidin-4-ylamino)-4-methylphenyl)-3-(trifluoromethyl)benzamide hydrochloride]", "IC50": "> 100"}
{"smiles": "CCOC(=O)c1ccc(Nc2ccnc(-c3cccnc3)n2)cc1Cl", "note": "[hydrochloride]", "IC50": 31}
